Results reported in patent US3991199A, “Pyridoindoles” (Endo Laboratories, Inc., priority 1974, dated 1976).
Counter-ions that a name gives are not always drawn. Like-named read-outs stand apart in the source and are kept apart here.

Tests used:
[1] = system: phenyl-p-benzoquinone writhing; assay: Phenylquinone Writhing (PQW), analgesic; type: in vivo; details: po, read-out: PQW mouse ED50
locomotor activity = assay: Decreased Locomotor Activity (LMA), sedative; type: in vivo, mouse; details: for minimal effective dose: po, read-out: LMA mouse MED
[2] = system: conditioned avoidance response; assay: Rat Conditioned Avoidance Response (CAR), major tranquilizer; type: in vivo; details: for ED50: po, read-out: CAR rat ED50
[3] = system: conflict (approach-avoidance); assay: Rat Conflict (Approach-Avoidance) Test (Conf), minor tranquilizer; type: in vivo; details: for minor tranquilizing (anxiolytic) activity: in words
blood pressure = assay: Hypotensive (Hypo): blood pressure in conscious rats; type: in vivo; details: Rattus norvegicus, oral dose, read-out: Hypo rat MED
[4] = system: pressor response to epinephrine and/or nor-epinephrine; assay: Adrenergic Blockage (AB); type: in vivo; details: Canis lupus familiaris; intravenous, dog; read-out: AB dog MED
[5] = U.S. Pat. No. 3,657,254; cited from earlier work
[6] = system: conflict (approach-avoidance); details: in words, background statement; cited from earlier work

## c1ccc(N2c3ccccc3[C@@H]3CN(CC4CCCC4)CC[C@H]32)cc1 (racemic) [compound 2 of Table II, (±)-trans-2-(cyclopentylmethyl)-2,3,4,4a,5,9b-hexahydro-5-phenyl-1H-pyrido[4,3-b]indole]
[1]; mouse
  ED50: 1 mg/kg
Locomotor activity; mouse
  minimal effective dose: 10 mg/kg
[2]; in words
  major tranquilizing (antipsychotic) activity: major tranquilizer (antipsychotic) activity
[2]; rat
  ED50: 5 mg/kg
[3]; po, rat
  Conf rat MED: I
Blood pressure
  minimal effective dose: 10 mg/kg
[4]
  minimal effective dose: 0.03 mg/kg

## Cl.c1ccc(N2c3ccccc3[C@@H]3CN(CC45CC6CC(CC(C6)C4)C5)CC[C@H]32)cc1 (racemic) [compound 4 of Table II, (±)-trans-2-(1-adamantylmethyl)-2,3,4,4a,5,9b-hexahydro-5-phenyl-1H-pyrido[4,3-b]indole, hydrochloride]
[1]; mouse
  ED50: 19 mg/kg
Locomotor activity; mouse
  minimal effective dose: 30 mg/kg
[2]; in words
  major tranquilizing (antipsychotic) activity: exhibit major tranquilizing (antipsychotic) activity
[2]; rat
  ED50: 50 mg/kg
[3]
  minor tranquilizing (anxiolytic) activity: exhibit minor tranquilizing (anxiolytic) activity at doses which are not sedating
[3]; po, rat, read-out: Conf rat MED
  minimal effective dose: 10 mg/kg
[3]; po, rat, comparison table, read-out: Rat Conf.
  minimal effective dose: 10 mg/kg
[4]
  minimal effective dose: > 1 mg/kg

## Cl.c1ccc(N2c3ccccc3[C@@H]3CN(CC4C5CC6CC(C5)CC4C6)CC[C@H]32)cc1 (mixture of isomers) [compound 14 of Table II, (±)-trans-2-(2-adamantylmethyl)-2,3,4,4a,5,9b-hexahydro-5-phenyl-1H-pyrido[4,3-b]indole, hydrochloride]
[1]; mouse
  ED50: 27 mg/kg
Locomotor activity; mouse
  minimal effective dose: 2 mg/kg
[2]; in words
  major tranquilizing (antipsychotic) activity: exhibit major tranquilizing (antipsychotic) activity
[3]
  minor tranquilizing (anxiolytic) activity: exhibit minor tranquilizing (anxiolytic) activity at doses which are not sedating
[3]; po, rat, ** active at this dose, MED not yet determined
  Conf rat, active dose: 10 mg/kg

## c1ccc(N2c3ccccc3[C@@H]3CN(CC4CCCCC4)CC[C@H]32)cc1 (relative stereo)
[1]; mouse
  ED50: 4 mg/kg
Locomotor activity; mouse
  minimal effective dose: 3 mg/kg
[2]; rat
  ED50: 20 mg/kg
[3]; po, rat
  Conf rat MED: I
Blood pressure
  minimal effective dose: 10 mg/kg
[4]
  minimal effective dose: 0.03 mg/kg

## CC12CCC(CN3CC[C@@H]4[C@@H](C3)c3ccccc3N4c3ccccc3)(CC1)CC2 (relative stereo)
[1]; mouse
  ED50: 80 mg/kg
Locomotor activity; mouse
  minimal effective dose: 30 mg/kg

## CC(Cl)=CCN1CC[C@@H]2[C@@H](C1)c1ccccc1N2c1ccccc1 (relative stereo)
[1]; mouse
  ED50: 2 mg/kg
Locomotor activity; mouse
  minimal effective dose: 1 mg/kg

## c1ccc(CCN2CC[C@@H]3[C@@H](C2)c2ccccc2N3c2ccccc2)cc1 (relative stereo)
[1]; mouse
  ED50: 2 mg/kg
Locomotor activity; mouse
  minimal effective dose: 10 mg/kg

## CC12C=CC(CN3CC[C@@H]4[C@@H](C3)c3ccccc3N4c3ccccc3)(CC1)CC2 (relative stereo)
[1]; mouse
  ED50: 14 mg/kg
Locomotor activity; mouse
  minimal effective dose: 30 mg/kg

## C1=CCC(CN2CC[C@@H]3[C@@H](C2)c2ccccc2N3c2ccccc2)CC1 (relative stereo)
[1]; mouse
  ED50: 2 mg/kg
Locomotor activity; mouse
  minimal effective dose: 3 mg/kg

## Cc1ccc2c(c1)[C@@H]1CN(C)CC[C@@H]1N2 (relative stereo) [2,8-dimethyl-2,3,4,4a,5,9b-hexahydro-1H-pyrido[4,3-b]]indole]
[5]
  mechanism of action: adrenergic blockade
  psychotropic effects: neuroleptic, antidepressive, and energizing effects

## c1ccc(N2c3ccccc3[C@@H]3CN(C[C@H]4[C@@H]5CCCC[C@@H]54)CC[C@H]32)cc1 (relative stereo) [compound 9 of Table II, (±)-trans-2,3,4,4a,5,9b-hexahydro-2-(exo-7-norcarylmethyl)-5-phenyl-1H-pyrido[4,3-b]indole, hydrochloride]
[1]; mouse
  ED50: 1 mg/kg
Locomotor activity; in words
  reducing locomotor activity: potency in reducing locomotor activity
Locomotor activity; mouse
  minimal effective dose: 0.1 mg/kg

## CC(=O)Oc1ccccc1C(=O)O [aspirin, reference compound]
[1]; Mus musculus
  ED50: 94 mg/kg

## CN(C)CCCN1c2ccccc2Sc2ccc(Cl)cc21 [chlorpromazine, reference compound]
Locomotor activity; Mus musculus
  minimal effective dose: 2 to 10 mg/kg
[2]; Rattus norvegicus
  ED50: 6 mg/kg
[3]; rat, in vivo, po
  Conf rat MED: I

## COc1ccc2c3c1O[C@H]1[C@@H](O)C=C[C@H]4[C@@H](C2)N(C)CC[C@@]341 [codeine phosphate, reference compound]
[1]; Mus musculus
  ED50: 19 mg/kg

## c1ccc(N2c3ccccc3[C@@H]3CN(CC4CCC4)CC[C@H]32)cc1 [compound of Example 2, (+)-trans-2-(cyclobutylmethyl)-2,3,4,4a,5,9b-hexahydro-5-phenyl-1H-pyrido[4,3-b]indole]
Locomotor activity; Mus musculus
  minimal effective dose: 3 mg/kg
[2]; Rattus norvegicus
  ED50: 4 mg/kg
[2]; rat, in vivo
  major tranquilizing (antipsychotic) activity: major tranquilizer (antipsychotic) activity
[3]; rat, in vivo, po
  Conf rat MED: I
Blood pressure
  minimal effective dose: 3 mg/kg

## CN1C(=O)CN=C(c2ccccc2)c2cc(Cl)ccc21 [diazepam, reference compound]
Locomotor activity; Mus musculus
  minimal effective dose: 3 to 10 mg/kg
[3]; Rattus norvegicus, po, read-out: Conf rat MED, with ataxia
  minimal effective dose: 3 to 10 mg/kg
[3]; Rattus norvegicus, po, read-out: Rat Conf.
  minimal effective dose: 3 to 10 mg/kg
[6]
  effect in conflict test: apparent decreased fear in the test animals

## CCCC(C)(COC(N)=O)COC(N)=O [meprobamate]
[6]
  effect in conflict test: apparent decreased fear in the test animals
